The record followed here is US10568877B2, “Preparation and anti-HSV-1 application of quinolinone derivatives” (OCEAN UNIVERSITY OF CHINA, priority 2015, dated 2020).

One series deals with HSV-1. Briefly: Antiviral activity against HSV-1 by cytopathic (CPE) assay in Hep-2 cells. To be noted: Human alphaherpesvirus 1; anti-HSV-1 activity, CPE assay, Hep-2 cells, neutral red OD 540 nm, Reed-Muench. The series is classed as cell-based, Herpes Simplex Virus 1. The procedure: The antiviral activities against HSV-1 were evaluated by cytopathic (CPE) assay. Hep-2 monolayer cells were treated with trypsin enzyme and transferred to 96-well plates. HSV-1 viruses were seeded with Hep-2 cells in 96-well plates, with 2% RPMI-1640 medium, and incubated under 37° C., 5% CO2. After more than 90% lesions, the virus-infected cells were repeatedly freezed and thawed for 3 times, centrifuged, and stored in the refrigerator at −80° C. Each tested compound was dissolved in 10 μL DMSO to make a homogeneous solution and the solution was diluted 10 times by one-to-one dilution with 2% RPMI-1640 medium. The solution gradient was added to the infected cells incubated in 96-well plates. Ribavirin was used as positive control. Normal cells alone and infected cells alone were used as control. All samples were incubated under 37° C., 5% CO2. Examine pathological changes once every hour, for 24 h. […] OD value was determined at 540 nm. IC50 values of the tested compounds were calculated by Reed-Muench methods.
(Damage to the host cells serves as the signal in cytopathic effect assays.)
The IC50 is the concentration at which inhibition is half-maximal. Low readings indicate greater potency in that assay, high ones weaker potency in that assay. In the case of `NC(=O)c1ncn([C@@H]2O[C@H](CO)[C@@H](O)[C@H]2O)n1` [Ribavirin, reference compound], the IC50 is 50 to 100 µM.

`COc1ccc([C@]2(O)c3c(O)cccc3NC(=O)[C@H]2O)cc1` [Compound 15] returned an IC50 of 50 to 100 µM. Still for that read-out and setting: the value for `CO[C@@H]1C(=O)Nc2ccc(/C=C/[C@]3(C)CC[C@@H](O)[C@@H](C)C3)c(O)c2[C@@]1(O)c1ccccc1` [Compound 3] was 0.05 to 2 µM; that for `C=C(C)/C=C/c1ccc2c(c1O)[C@](O)(c1ccc(OC)cc1)[C@@H](OC)C(=O)N2` [Compound 19] was 25 to 50 µM; that for `CO[C@@H]1C(=O)Nc2ccc(/C=C/[C@]3(C)CCC(=O)[C@@H](C)C3)c(O)c2[C@@]1(O)c1ccccc1` [Compound 2a] was 0.05 to 2 µM. On the same count and under the same terms, in the case of `COc1ccc(-c2c(O)c(=O)[nH]c3ccccc23)cc1` [Compound 29] it was 25 to 50 µM; in that of `COc1ccc([C@@]2(O)c3c(ccc(/C=C/[C@@]4(C)OC(C)(C)[C@@H]5C[C@@H]54)c3O)NC(=O)[C@@H]2OC)cc1` [Compound 5], 2 to 25 µM. Regarding `COc1ccc([C@@]2(O)c3c(ccc(CC=C(C)C)c3O)NC(=O)[C@@H]2OC)cc1` [Compound 17], the IC50 lay within 25 to 50 µM. `COc1ccc([C@@]2(O)c3c(ccc(/C=C/[C@]4(C)CC[C@@H](O)C(C)(C)O4)c3O)NC(=O)[C@@H]2OC)cc1` [Compound 7] returned an IC50 of 2 to 25 µM. The same measure, in the same setting: in the case of `C=C(C)[C@H]1CC[C@](C)(/C=C/c2ccc3c(c2O)[C@@](O)(c2ccccc2)[C@H](OC)C(=O)N3)O1` [Compound 1] it was 0.05 to 2 µM; in that of `COc1ccc([C@@]2(O)c3c(ccc(/C=C/C(C)=O)c3O)NC(=O)[C@@H]2OC)cc1` [Compound 18], 25 to 50 µM; in that of `COc1ccc([C@]2(O)c3ccccc3NC(=O)[C@H]2O)cc1` [Compound 16], 50 to 100 µM. Still for that read-out and setting: the value for `COc1ccc([C@@]2(O)c3c(ccc(/C=C/C4(C)CCC(C)(C)C(O)O4)c3O)NC(=O)[C@@H]2OC)cc1` (some centres unmarked) [Compound 10] was 0.05 to 2 µM; that for `CO[C@@H]1C(=O)Nc2ccc(/C=C/[C@@]3(C)CCC(=O)[C@@H](C)C3)c(O)c2[C@@]1(O)c1ccccc1` [Compound 4] was 0.05 to 2 µM; that for `COc1ccc([C@@]2(O)c3c(ccc(/C=C/[C@@]4(C)CCC(C)(C)CO4)c3O)NC(=O)[C@@H]2OC)cc1` [Compound 11] was 2 to 25 µM. On the same count and under the same terms, the value for `COc1ccc([C@@]2(O)c3c(ccc(/C=C/[C@@]4(C)OC(C)(C)[C@H]5C[C@H]54)c3O)NC(=O)[C@@H]2OC)cc1` [Compound 6] was 2 to 25 µM; that for `O=c1[nH]c2ccccc2c(-c2ccccc2)c1O` [Compound 30] was 25 to 50 µM.

Still in this series, the particulars now being: TC50 = median toxic concentration for Hep-2 monolayer cells; IC50 against HSV-1.
For `NC(=O)c1ncn([C@@H]2O[C@H](CO)[C@@H](O)[C@H]2O)n1` [Ribavirin, reference compound], the “TI = TC50/IC50” value is reported as “++++ (“++++” means TI > 500)”. Consider `COc1ccc([C@@]2(O)c3c(ccc(/C=C/[C@]4(C)CCC(C)(C)CO4)c3O)NC(=O)[C@@H]2OC)cc1` [Compound 12], for which the “TI = TC50/IC50” value was “++ (“++” means TI was between 20 and 100)”.

Staying with this series, now noted: anti-HSV-1 activity, CPE assay, Hep-2 cells, neutral red OD 540 nm, Reed-Muench.
As for `COc1ccc([C@@]2(O)c3c(ccc(/C=C/[C@]4(C)CCC(C)(C)CO4)c3O)NC(=O)[C@@H]2OC)cc1` [Compound 12], the IC50 lay within 2 to 25 µM.
